For this test, the target named is Prostaglandin G/H synthase 1 (Homo sapiens, UniProt P23219). Kind of test: Biochemical index for Prostaglandin G/H synthase 1 measured as, thromboxane 2 (TXB2) levels following blood coagulation. Type of test: tissue-based.

Molecules are shown by their SMILES.

Sequence of Prostaglandin G/H synthase 1 (P23219 whole entry): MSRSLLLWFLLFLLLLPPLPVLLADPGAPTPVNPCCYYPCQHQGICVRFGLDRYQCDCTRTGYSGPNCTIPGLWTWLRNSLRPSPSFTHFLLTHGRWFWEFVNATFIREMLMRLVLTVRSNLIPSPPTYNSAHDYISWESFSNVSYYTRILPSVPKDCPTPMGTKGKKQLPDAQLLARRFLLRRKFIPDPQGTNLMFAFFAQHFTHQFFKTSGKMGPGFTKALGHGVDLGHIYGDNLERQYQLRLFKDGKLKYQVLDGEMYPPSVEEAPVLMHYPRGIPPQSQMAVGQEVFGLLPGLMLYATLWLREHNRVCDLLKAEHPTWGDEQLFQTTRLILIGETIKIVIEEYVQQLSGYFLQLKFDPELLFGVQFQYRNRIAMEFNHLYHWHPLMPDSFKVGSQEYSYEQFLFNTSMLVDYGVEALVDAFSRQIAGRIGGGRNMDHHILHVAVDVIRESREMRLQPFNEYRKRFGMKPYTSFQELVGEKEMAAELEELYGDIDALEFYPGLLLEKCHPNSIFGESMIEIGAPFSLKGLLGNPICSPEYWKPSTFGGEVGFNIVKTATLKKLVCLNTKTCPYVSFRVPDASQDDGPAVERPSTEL

By IC50 is commonly meant the concentration that gives 50% inhibition. The low end stands for inhibition by little substance, the high end for a need for much substance. Consider `Cc1ccc(N2CC(c3ccc(S(C)(=O)=O)cc3)=C(c3ccc(F)cc3)C2=O)cc1`, for which the IC50 stood at 3.7 µM.

`CS(=O)(=O)c1ccc(C2=C(c3ccccc3)C(=O)N(c3ccc(C(F)(F)F)cc3)C2)cc1` gave an IC50 of 5.1 µM. For the molecule `CS(=O)(=O)c1ccc(C2=C(c3ccc(F)cc3)C(=O)N(c3ccccc3)C2)cc1`, the IC50 was 2.7 µM.

The molecule `CS(=O)(=O)c1ccc(C2=C(c3ccccc3)C(=O)N(c3ccccc3F)C2)cc1` displayed a 50% inhibitory concentration (IC50) of 10.8 µM. `CS(=O)(=O)c1ccc(C2=C(c3ccc(F)c(F)c3)C(=O)N(c3ccccc3)C2)cc1` displayed an IC50 of 8.2 µM. The molecule `COc1ccc(C2=C(c3ccc(S(C)(=O)=O)cc3)CN(c3ccccc3)C2=O)cc1` registered an IC50 of 2.68 µM. The value for `CS(=O)(=O)c1ccc(C2=C(c3ccc(F)cc3)C(=O)N(c3ccccc3F)C2)cc1` was 2.5 µM; that for `COc1ccccc1N1CC(c2ccc(S(C)(=O)=O)cc2)=C(c2ccc(F)cc2)C1=O` was 4 µM. With `COc1ccc(C2=C(c3ccc(S(C)(=O)=O)cc3)CN(c3cccc(F)c3)C2=O)cc1`, the midpoint of inhibition, the IC50, lay at 2.5 µM.

In turn, `COc1ccc(C2=C(c3ccc(S(C)(=O)=O)cc3)CN(c3ccc(F)cc3)C2=O)cc1` gave an IC50 of 2.5 µM. The value for `CS(=O)(=O)c1ccc(C2=C(c3ccccc3)C(=O)N(c3ccc(F)cc3)C2)cc1` was 5.86 µM; that for `Cc1ccc(N2CC(c3ccc(S(C)(=O)=O)cc3)=C(c3ccccc3)C2=O)cc1` was 6.9 µM.

In turn, `CS(=O)(=O)c1ccc(C2=C(c3ccc(F)cc3)C(=O)N(c3ccc(C(F)(F)F)cc3)C2)cc1` yielded an IC50 of 7.2 µM. The value for `COc1ccc(C2=C(c3ccc(S(C)(=O)=O)cc3)CN(c3ccccc3Cl)C2=O)cc1` was 2.3 µM. The molecule `CS(=O)(=O)c1ccc(C2=C(c3ccccc3)C(=O)N(c3cccc(Cl)c3)C2)cc1` returned an IC50 of 9.8 µM. As to `COc1ccc(N2CC(c3ccc(S(C)(=O)=O)cc3)=C(c3ccc(F)cc3)C2=O)cc1`, the IC50 amounted to 5.28 µM.

As to `CS(=O)(=O)c1ccc(C2=C(c3ccccc3)C(=O)N(c3ccccc3)C2)cc1`, the IC50 is 2.4 µM.
